# From paper PMC8467647, “Identification of Small Molecule Inhibitors against Staphylococcus aureus Dihydroorotase via HTS” (International Journal of Molecular Sciences, 2021)
# T1: SaDHOase (Staphylococcus aureus, UniProt Q5HGN1)
# T1 construct: The full-length SaDHOase was expressed and purified following the cloning of the SaDHO gene; His-SUMO with HRV 3C protease site (N, cleaved yes); made in house; host or cells: E. coli BL21 (DE3)
# T1 sequence (Q5HGN1 1-424): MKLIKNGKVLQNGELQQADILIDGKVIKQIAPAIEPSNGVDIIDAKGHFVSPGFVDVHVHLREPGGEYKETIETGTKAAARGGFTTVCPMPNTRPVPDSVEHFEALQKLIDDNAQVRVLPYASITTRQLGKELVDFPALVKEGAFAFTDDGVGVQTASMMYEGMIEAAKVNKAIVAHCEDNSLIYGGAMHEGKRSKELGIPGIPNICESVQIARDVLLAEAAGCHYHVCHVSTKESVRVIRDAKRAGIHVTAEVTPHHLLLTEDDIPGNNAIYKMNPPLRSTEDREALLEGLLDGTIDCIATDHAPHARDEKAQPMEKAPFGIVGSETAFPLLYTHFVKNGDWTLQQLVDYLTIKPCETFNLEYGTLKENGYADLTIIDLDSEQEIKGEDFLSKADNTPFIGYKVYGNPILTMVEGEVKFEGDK
# B1: SaDHOase (Staphylococcus aureus subsp. aureus COL) (protein)
# chain: T1 sequence (Q5HGN1 1-424)
# notes: The full-length SaDHOase was expressed and purified following the cloning of the SaDHO gene; His-SUMO with HRV 3C protease site (N, cleaved yes); made in house; host or cells: E. coli BL21 (DE3)
# Target: T1, SaDHOase
# Experiment: Competition SPR in the presence of 1 mM substrate Ca-asp
# Assay type: binding
# Details: KD with 1 mM Ca-asp vs compound alone
# Protocol: (§1) The KD was determined using the response units during the equilibration phase of each concentration of the compound. […] In order to determine the mechanism of action, competition SPR studies were done in the presence of high concentration of the substrate Ca-asp (KM = 110 µM) (Figure 3A). Dose-response curve of the tightest binder (5) is shown as an example (Figure 3C).
# (§2) For KD determination of analogs, DHOase was immobilized to flow channels 2, 3 and 4 at levels of 10,160 RU, 12,072 RU and 11,358 RU, respectively. 1 mM Ca-asp was additionally added to the binding buffer for a competition SPR. The sensorgrams were analyzed using BiaEvaluation software 2.0.3. All data was referenced to a blank channel RU signal prior to the fitting. The RU difference at each concentration was measured during the binding equilibration phase, and BiaEvaluation software v2.0.3 was used to fit the data to determine KD values. The RU values and corresponding concentrations were plotted using the single hyperbolic Function (1), where y is the response; ymax is the maximum response, and x is the compound concentration. (1) y=ymax·x/(KD+x)
row,Molecule,Weakening of binding affinity in the presence of 1 mM Ca-asp
1,NC1C(=O)Nc2ccc(Br)cc21 (stereo not shown) [Compound 1],~ 2.8 fold

# Same assay, conditions: competition SPR, 1 mM Ca-asp
row,Molecule,Effect of substrate Ca-asp on binding (mode of binding)
1,Cn1c(SCC#N)nc2ccccc2c1=O [Compound 2],not affected by Ca-asp presence

# Target: T1, SaDHOase
# Experiment: SPR direct binding, steady-state affinity KD determination
# Details: compound alone, immobilized SaDHOase, 25 °C, steady-state affinity fit
# Protocol: as §1
# Purified histidine-tag cleaved DHOase was buffer exchanged to PBS (10 mM phosphate, pH 7.4, 2.7 mM KCl and 137 mM NaCl) for SPR. SPR was performed at 25 °C using a Biacore T200 instrument and a CM5 sensor chip (GE Healthcare). The flow channels were activated by a 1-ethyl-3-(3-dimethylaminopropyl) carbodiimide hydrochloride (EDC)/N-hydroxy succinimide (NHS) mixture. Flow channel 1 was left unmodified as a control. DHOase was diluted in 10 mM sodium acetate (pH 4.0) and immobilized to flow channels 2 and 3 at levels of 8596 RU and 8342 RU, respectively. Fragment solutions at 65 μM and 200 μM were applied to all three channels at a 30 μL/min flow rate. For KD determination, fragment solutions at increasing concentrations (0–400 μM at 2-fold dilution) were applied to all three channels at a 30 μL/min flow rate. The SPR binding buffer was PBS-P supplemented with 2% DMSO and 0.5 mM TCEP. All data was referenced with the blank channel RU values, and the sensorgrams were analyzed using Biacore T200 evaluation software v2.0.3. The response units at each concentration was measured during the equilibration phase for the steady-state affinity fittings.
# as §2
Kd,KD,Molecule
156 µM,,Cc1ccccc1CN1CCCN(C)CC1 [Compound 3]
274 µM,,CCNC(=O)N1CCC(N)CC1 [Compound 4]
48 µM,,Cc1ccc(CN2CCC(O)CC2)cc1 [Compound 5]
90 ± 4 µM,,OC1CCN(Cc2cccc(Cl)c2Cl)CC1 [Compound 6]
41 ± 18 µM,,Cc1ccccc1CN1CCC(O)CC1 [Compound 7]
11 ± 5 µM,,Cc1ccc(C)c(CN2CCC(O)CC2)c1 [Compound 8]
125 ± 20 µM,,CCc1ccc(CN2CCC(O)CC2)cc1 [Compound 9]
> 400 µM,eliminates all bonding,Cc1cccc(CN2CCC(O)CC2)c1 [Compound 10]
> 400 µM,eliminates all bonding,OC1CCN(Cc2cccc(C(F)(F)F)c2)CC1 [Compound 11]
48 ± 24 µM,,OC1CCN(Cc2ccc(C(F)(F)F)cc2)CC1 [Compound 12]
77 ± 15 µM,,Cc1ccc(CN2CCCC(O)C2)c(C)c1 (stereo not shown) [Compound 13]
38 ± 5 µM,,Cc1cccc(CN2CCCC(CO)C2)c1 (stereo not shown) [Compound 14]

Molecule,Kd,KD
NC1C(=O)Nc2ccc(Br)cc21 (stereo not shown) [Compound 1],205 µM,
Cn1c(SCC#N)nc2ccccc2c1=O [Compound 2],98 µM,

# Substrate: NC(=O)N[C@@H](CC(=O)O)C(=O)O
# Experiment: SaDHOase enzyme activity (substrate KM)
# Assay type: biochemical, Staphylococcus aureus
# Details: other: substrate of SaDHOase
# Protocol: The full-length SaDHOase was expressed and purified following the cloning of the SaDHO gene according to previously published methods. Purified SaDHOase enzyme activity was measured and confirmed by two methods, one by observing the production of Ca-asp (reverse reaction) at a UV-Vis absorption of 540 nm (TSC-DAMO method) and the other with continuously monitoring reduction of DHO at 230 nm (Figure 1A). Enzyme rates were calculated using the measured slopes, path length of 0.44 cm and the extinction coefficient (ε) of DHO at 230 nm, 1.17 mM^−1 cm^−1 [14].
row,Molecule,Km
1,B1,110 µM
